Assay results reported in PMC4904262 (ACS Medicinal Chemistry Letters, 2016).

Experiments:
Details in all cases: 1 µM, ATP at Km
MKK7BETA = MKK7BETA (Homo sapiens, UniProt O14733)
PDGFRBETA = PDGFRBETA (Homo sapiens, UniProt P09619)
ROCK-II = ROCK-II (Homo sapiens, UniProt O75116)
PAR-1BALPHA = PAR-1BALPHA (Homo sapiens, UniProt Q7KZI7)
PRKX = PRKX (Homo sapiens, UniProt P51817)
ZAP-70 = ZAP-70 (Homo sapiens, UniProt P43403)
BRSK2 = BRSK2 (Homo sapiens, UniProt Q8IWQ3)
PAK4 = PAK4 (Homo sapiens, UniProt O96013)
CDK2/CYCLINA = CDK2/CYCLINA (Homo sapiens, UniProt P24941)
TAK1 = TAK1 (Homo sapiens, UniProt O43318)
CDK2/CYCLINE = CDK2/CYCLINE (Homo sapiens, UniProt P24941)
RSK3 = RSK3 (Homo sapiens, UniProt Q15349)
YES = YES (Homo sapiens, UniProt P07947)
GRK7 = GRK7 (Homo sapiens, UniProt Q8WTQ7)
DYRK2 = DYRK2 (Homo sapiens, UniProt Q92630)
RSK2 = RSK2 (Homo sapiens, UniProt P51812)
TLK2 = TLK2 (Homo sapiens, UniProt Q86UE8)
TAO2 = TAO2 (Homo sapiens, UniProt Q9UL54)
SGK3 = SGK3 (Homo sapiens, UniProt Q96BR1)
SRPK1 = SRPK1 (Homo sapiens, UniProt Q96SB4)
JNK2ALPHA2 = JNK2ALPHA2 (Homo sapiens, UniProt P45984)
PKG1BETA = PKG1BETA (Homo sapiens, UniProt Q13976)
SAPK4 = SAPK4 (Homo sapiens, UniProt O15264)
LIMK1 = LIMK1 (Homo sapiens, UniProt P53667)
FGFR1 = FGFR1 (Homo sapiens, UniProt P11362)
FGFR4 = FGFR4 (Homo sapiens, UniProt P22455)
EPHA2 = EPHA2 (Homo sapiens, UniProt P29317)
[…] = […] (Homo sapiens, UniProt Q13555)
SNK = SNK (Homo sapiens, UniProt Q9NYY3)
EPHB2 = EPHB2 (Homo sapiens, UniProt P29323)
MLCK = test system: MLCK
PYK2 = PYK2 (Homo sapiens, UniProt Q14289)
FLT3 = FLT3 (Homo sapiens, UniProt P36888)
AURKA = AURKA (Homo sapiens, UniProt O14965)
PAK2 = PAK2 (Homo sapiens, UniProt Q13177)
CAMKI = CAMKI (Homo sapiens, UniProt Q14012)
EPHA1 = EPHA1 (Homo sapiens, UniProt P21709)
CK1DELTA = CK1DELTA (Homo sapiens, UniProt P48730)
SRC = SRC (Homo sapiens, UniProt P12931)
WNK3 = WNK3 (Homo sapiens, UniProt Q9BYP7)
ABL = ABL (Homo sapiens, UniProt P00519)
ULK3 = ULK3 (Homo sapiens, UniProt Q6PHR2)
ERBB4 = ERBB4 (Homo sapiens, UniProt Q15303)
CAMKIIBETA = CAMKIIBETA (Homo sapiens, UniProt Q13554)
MER = MER (Homo sapiens, UniProt Q12866)

Sequence of PKG1BETA (Q13976 1-686 isoform Q13976-2): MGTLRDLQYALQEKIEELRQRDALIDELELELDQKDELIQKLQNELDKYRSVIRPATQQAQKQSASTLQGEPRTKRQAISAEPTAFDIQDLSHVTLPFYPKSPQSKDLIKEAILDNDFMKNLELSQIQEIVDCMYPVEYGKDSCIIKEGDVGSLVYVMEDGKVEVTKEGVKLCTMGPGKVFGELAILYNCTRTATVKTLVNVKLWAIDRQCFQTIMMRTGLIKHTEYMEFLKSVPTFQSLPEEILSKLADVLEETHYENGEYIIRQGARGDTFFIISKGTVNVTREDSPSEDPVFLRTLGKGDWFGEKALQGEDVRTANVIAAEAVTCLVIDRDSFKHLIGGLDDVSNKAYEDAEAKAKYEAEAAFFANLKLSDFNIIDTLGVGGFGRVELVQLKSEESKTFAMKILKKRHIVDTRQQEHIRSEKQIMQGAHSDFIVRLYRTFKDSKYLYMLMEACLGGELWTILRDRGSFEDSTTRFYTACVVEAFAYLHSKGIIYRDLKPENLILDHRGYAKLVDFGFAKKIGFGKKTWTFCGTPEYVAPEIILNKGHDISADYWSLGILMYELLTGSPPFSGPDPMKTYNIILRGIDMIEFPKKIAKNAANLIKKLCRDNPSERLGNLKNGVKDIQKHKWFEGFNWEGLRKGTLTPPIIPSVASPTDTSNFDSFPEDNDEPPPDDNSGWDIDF
Sequence of TAO2 (Q9UL54 whole entry): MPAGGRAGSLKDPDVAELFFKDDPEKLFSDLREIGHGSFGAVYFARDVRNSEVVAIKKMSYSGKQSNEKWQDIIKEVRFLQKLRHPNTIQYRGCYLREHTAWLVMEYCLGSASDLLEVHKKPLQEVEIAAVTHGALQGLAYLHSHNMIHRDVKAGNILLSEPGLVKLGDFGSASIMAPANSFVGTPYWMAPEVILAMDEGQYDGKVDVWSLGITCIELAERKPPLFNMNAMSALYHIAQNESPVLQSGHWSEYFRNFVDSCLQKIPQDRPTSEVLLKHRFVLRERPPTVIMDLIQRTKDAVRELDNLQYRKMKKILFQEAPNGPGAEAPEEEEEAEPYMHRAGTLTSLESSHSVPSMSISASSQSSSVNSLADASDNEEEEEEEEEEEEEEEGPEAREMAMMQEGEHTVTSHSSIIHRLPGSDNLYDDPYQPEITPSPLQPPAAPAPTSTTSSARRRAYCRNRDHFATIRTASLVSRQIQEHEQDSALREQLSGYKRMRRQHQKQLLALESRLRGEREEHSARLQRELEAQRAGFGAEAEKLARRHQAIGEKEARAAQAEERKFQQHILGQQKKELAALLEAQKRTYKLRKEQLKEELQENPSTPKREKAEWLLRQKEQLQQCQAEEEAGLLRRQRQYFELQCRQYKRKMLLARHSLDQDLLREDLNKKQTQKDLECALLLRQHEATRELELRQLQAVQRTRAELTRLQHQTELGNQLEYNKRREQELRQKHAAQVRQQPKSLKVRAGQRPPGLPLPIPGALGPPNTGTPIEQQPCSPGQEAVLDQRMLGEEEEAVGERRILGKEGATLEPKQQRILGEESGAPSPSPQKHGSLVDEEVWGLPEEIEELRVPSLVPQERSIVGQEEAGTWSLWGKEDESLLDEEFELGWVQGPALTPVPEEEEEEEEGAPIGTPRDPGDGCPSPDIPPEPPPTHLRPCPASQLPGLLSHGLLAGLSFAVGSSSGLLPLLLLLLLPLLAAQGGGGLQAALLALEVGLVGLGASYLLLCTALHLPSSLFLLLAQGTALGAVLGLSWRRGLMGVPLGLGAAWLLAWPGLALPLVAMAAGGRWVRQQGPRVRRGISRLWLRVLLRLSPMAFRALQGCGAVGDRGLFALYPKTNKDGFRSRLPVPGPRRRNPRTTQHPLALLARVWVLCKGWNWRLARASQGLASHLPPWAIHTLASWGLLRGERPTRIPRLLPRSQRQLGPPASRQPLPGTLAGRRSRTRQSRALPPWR
Sequence of PDGFRBETA (P09619 33-1106): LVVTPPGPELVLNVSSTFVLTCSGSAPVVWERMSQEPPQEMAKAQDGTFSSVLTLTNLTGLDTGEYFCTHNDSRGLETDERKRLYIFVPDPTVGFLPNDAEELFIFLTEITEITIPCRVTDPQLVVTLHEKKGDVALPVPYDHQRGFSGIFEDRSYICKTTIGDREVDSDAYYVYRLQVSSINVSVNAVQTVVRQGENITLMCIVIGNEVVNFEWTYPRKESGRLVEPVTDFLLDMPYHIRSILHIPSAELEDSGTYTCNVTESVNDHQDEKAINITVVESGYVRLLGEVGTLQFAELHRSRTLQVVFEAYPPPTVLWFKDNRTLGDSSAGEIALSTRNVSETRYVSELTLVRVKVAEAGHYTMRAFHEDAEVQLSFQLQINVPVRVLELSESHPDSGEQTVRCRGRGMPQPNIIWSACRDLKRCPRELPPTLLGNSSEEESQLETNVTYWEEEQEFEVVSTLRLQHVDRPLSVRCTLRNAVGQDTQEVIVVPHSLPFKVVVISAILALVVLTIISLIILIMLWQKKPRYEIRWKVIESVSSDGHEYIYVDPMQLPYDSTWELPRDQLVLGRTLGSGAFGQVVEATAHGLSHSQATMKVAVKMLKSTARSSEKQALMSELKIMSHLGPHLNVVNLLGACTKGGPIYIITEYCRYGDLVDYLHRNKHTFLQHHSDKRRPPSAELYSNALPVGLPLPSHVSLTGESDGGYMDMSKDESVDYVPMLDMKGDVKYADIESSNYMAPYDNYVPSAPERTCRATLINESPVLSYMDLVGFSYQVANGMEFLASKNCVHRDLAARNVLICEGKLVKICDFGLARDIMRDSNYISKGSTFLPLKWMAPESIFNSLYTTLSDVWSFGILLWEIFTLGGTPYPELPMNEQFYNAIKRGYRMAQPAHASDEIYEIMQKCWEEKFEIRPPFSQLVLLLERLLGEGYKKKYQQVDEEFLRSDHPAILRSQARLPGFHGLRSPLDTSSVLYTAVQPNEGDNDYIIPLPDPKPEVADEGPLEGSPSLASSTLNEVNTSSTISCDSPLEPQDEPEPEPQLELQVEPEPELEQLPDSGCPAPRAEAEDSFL
Sequence of […] (Q13555 whole entry): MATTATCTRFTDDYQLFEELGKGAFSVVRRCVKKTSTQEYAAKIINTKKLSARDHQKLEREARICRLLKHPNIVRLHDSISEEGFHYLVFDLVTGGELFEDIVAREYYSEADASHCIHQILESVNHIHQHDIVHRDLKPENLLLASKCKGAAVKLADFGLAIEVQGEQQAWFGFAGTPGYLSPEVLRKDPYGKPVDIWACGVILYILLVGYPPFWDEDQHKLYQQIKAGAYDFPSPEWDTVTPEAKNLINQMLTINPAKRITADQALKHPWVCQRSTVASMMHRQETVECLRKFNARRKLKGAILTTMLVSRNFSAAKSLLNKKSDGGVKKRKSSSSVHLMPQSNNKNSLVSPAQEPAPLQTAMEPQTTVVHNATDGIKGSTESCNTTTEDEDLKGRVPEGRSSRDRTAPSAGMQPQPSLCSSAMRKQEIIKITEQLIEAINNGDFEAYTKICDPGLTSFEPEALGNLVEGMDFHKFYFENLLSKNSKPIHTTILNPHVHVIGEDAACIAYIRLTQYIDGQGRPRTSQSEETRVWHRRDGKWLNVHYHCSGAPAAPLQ
Sequence of LIMK1 (P53667 whole entry): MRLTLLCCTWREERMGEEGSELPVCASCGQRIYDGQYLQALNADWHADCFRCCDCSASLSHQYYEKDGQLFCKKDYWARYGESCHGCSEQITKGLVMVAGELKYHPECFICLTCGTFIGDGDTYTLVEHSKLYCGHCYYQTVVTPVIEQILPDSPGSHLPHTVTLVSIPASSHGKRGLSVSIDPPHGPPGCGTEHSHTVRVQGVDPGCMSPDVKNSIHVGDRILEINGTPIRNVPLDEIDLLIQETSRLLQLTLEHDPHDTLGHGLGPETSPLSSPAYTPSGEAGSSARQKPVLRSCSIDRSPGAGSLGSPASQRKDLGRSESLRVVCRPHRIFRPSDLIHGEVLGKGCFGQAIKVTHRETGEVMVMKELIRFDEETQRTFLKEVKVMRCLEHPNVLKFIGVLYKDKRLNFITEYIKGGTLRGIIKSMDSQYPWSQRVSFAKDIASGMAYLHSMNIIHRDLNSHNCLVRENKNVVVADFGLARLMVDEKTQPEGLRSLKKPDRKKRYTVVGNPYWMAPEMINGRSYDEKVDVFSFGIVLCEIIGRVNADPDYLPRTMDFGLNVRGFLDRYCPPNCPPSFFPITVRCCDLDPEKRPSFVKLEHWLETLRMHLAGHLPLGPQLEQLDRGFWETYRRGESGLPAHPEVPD
Sequence of ULK3 (Q6PHR2 whole entry): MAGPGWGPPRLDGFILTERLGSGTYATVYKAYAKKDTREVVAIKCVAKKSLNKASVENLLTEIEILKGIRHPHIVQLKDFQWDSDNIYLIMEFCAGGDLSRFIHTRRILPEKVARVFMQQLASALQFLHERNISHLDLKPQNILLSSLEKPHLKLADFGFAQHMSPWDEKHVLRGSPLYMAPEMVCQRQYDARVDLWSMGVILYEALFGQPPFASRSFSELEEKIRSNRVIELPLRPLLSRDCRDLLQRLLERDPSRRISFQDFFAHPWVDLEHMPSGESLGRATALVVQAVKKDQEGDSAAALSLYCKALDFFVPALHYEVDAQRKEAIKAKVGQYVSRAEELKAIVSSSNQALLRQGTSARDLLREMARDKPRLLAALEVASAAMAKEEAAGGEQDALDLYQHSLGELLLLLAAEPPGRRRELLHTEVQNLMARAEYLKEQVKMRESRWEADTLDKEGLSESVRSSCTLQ
Sequence of SAPK4 (O15264 whole entry): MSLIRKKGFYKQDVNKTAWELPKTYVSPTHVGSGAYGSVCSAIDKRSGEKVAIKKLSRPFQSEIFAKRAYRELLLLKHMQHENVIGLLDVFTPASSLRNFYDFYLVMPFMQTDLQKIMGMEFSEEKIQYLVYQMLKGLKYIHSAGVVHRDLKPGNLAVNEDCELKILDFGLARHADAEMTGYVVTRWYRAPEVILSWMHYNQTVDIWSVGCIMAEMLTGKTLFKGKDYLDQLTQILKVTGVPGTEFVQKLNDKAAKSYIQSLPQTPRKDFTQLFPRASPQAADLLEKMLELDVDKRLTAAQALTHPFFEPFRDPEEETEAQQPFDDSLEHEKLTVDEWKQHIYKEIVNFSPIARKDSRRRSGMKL

COC1CN(C(=O)c2ccc3c(N)ncc(-c4ccc(-c5cnn(C)c5)cc4)c3n2)C1 [Compound 51]
percentage effect (MKK7BETA): 9%
percentage effect (PDGFRBETA): 2%
percentage effect (ROCK-II): -2%
percentage effect (PAR-1BALPHA): -9%
percentage effect (PRKX): 43%
percentage effect (ZAP-70): -3%
percentage effect (BRSK2): 1%
percentage effect (PAK4): 4%
percentage effect (CDK2/CYCLINA): 5%
percentage effect (TAK1): -9%
percentage effect (CDK2/CYCLINE): -1%
percentage effect (RSK3): 4%
percentage effect (YES): -22%
percentage effect (GRK7): 3%
percentage effect (DYRK2): -6%
percentage effect (RSK2): 6%
percentage effect (TLK2): 2%
percentage effect (TAO2): -5%
percentage effect (SGK3): -13%
percentage effect (SRPK1): 3%
percentage effect (JNK2ALPHA2): -6%
percentage effect (PKG1BETA): 1%
percentage effect (SAPK4): 2%
percentage effect (LIMK1): 0%
percentage effect (FGFR1): 10%
percentage effect (FGFR4): 3%
percentage effect (EPHA2): -12%
percentage effect ([…]): 5%
percentage effect (SNK): 8%
percentage effect (EPHB2): 7%
percentage effect (MLCK): 0%
percentage effect (PYK2): -4%
percentage effect (FLT3): 0%
percentage effect (AURKA): -3%
percentage effect (PAK2): -17%
percentage effect (CAMKI): -10%
percentage effect (EPHA1): 7%
percentage effect (CK1DELTA): 1%
percentage effect (SRC): 7%
percentage effect (WNK3): -9%
percentage effect (ABL): 20%
percentage effect (ULK3): 2%
percentage effect (ERBB4): -8%
percentage effect (CAMKIIBETA): -10%
percentage effect (MER): -3%

COC1CN(C(=O)c2ccc3c(N)ncc(-c4ccc(-c5cnn(C)c5)cc4)c3c2)C1 [Compound 59]
percentage effect (MKK7BETA): -23%
percentage effect (PDGFRBETA): 17%
percentage effect (ROCK-II): -12%
percentage effect (PAR-1BALPHA): -4%
percentage effect (PRKX): 6%
percentage effect (ZAP-70): -6%
percentage effect (BRSK2): 5%
percentage effect (PAK4): 10%
percentage effect (CDK2/CYCLINA): -5%
percentage effect (TAK1): -13%
percentage effect (CDK2/CYCLINE): 1%
percentage effect (RSK3): 4%
percentage effect (YES): -18%
percentage effect (GRK7): 8%
percentage effect (DYRK2): -9%
percentage effect (RSK2): 0%
percentage effect (TLK2): -5%
percentage effect (TAO2): -7%
percentage effect (SGK3): 9%
percentage effect (SRPK1): -24%
percentage effect (JNK2ALPHA2): 2%
percentage effect (PKG1BETA): 1%
percentage effect (SAPK4): -13%
percentage effect (LIMK1): 5%
percentage effect (FGFR1): 11%
percentage effect (FGFR4): 14%
percentage effect (EPHA2): 7%
percentage effect ([…]): 2%
percentage effect (SNK): 3%
percentage effect (EPHB2): 24%
percentage effect (MLCK): -20%
percentage effect (PYK2): -1%
percentage effect (FLT3): 16%
percentage effect (AURKA): -21%
percentage effect (PAK2): -18%
percentage effect (CAMKI): -5%
percentage effect (EPHA1): 4%
percentage effect (CK1DELTA): -10%
percentage effect (SRC): -6%
percentage effect (WNK3): 4%
percentage effect (ABL): -10%
percentage effect (ULK3): 8%
percentage effect (ERBB4): -34%
percentage effect (CAMKIIBETA): 5%
percentage effect (MER): -4%
